Test results from patent publication US6379692B1, “Pharmaceutical composition comprising a suspension for the active ingredient” (Chauvin Pharmaceuticals Limited, priority 1997, dated 2002).

Assay: particle size by Coulter counter (100 μm tube)
Assay type: physicochemical
Conditions: without the use of a viscosity-enhancing agent
Text: (iii) bringing the salt solution, the aqueous suspension or dispersion and the acid into admixture whereby there is formed a precipitate of microparticles of the active ingredient wherein 90% of the microparticles are of a diameter less than about 10 μm (number) when measured by a Coulter counter (100 μm tube).
Step (iii) may be undertaken by first bringing the salt solution into admixture with the aqueous suspension or dispersion followed by addition of the acid. However, preferably, the acid is added to the aqueous suspension/dispersion prior to addition thereto of the salt solution. Preferably, more base is then added to the suspension to neutralize the hydrophilic polymer(s). […]
However, in contrast to when pre-micronized active ingredient is used, the process of the present invention whereby such fine particles are produced in situ by precipitation results in a better distribution of particle size, with the D90 at room temperature being of the order of 5-10 μm (number), preferably 7-9 μm (number) or 10-16 μm (volume), whereas for pre-micronized drug the D90 is of the order of 5-10 μm (number) or 21-24 μm (volume). […] The term “D90” as used herein with respect to particle size distribution means that 90% of the particles have a diameter, when measured by a Coulter counter (100 μm tube), of less than the quoted figure. […]

length of needle-shaped crystals precipitated: greater than 30 μm
Structure (SMILES): Nc1nc2c(ncn2COCCO)c(=O)[nH]1 [aciclovir, 2-amino-1,9-dihydro-9-[(2-hydroxyethoxy)methyl]6H-purin-6-one]
